Columns and labels:
Format in all cases: functional
UACC-62 = assay: Cytotoxicity against human UACC62 cells assessed as cell growth at 1 uM after 48 hrs by sulforhodamine B assay relative to control; conditions: UACC-62, 48 h, read-out: Activity
MDA-MB-435 = assay: Cytotoxicity against human MDA-MB-435 cells assessed as cell growth at 1 uM after 48 hrs by sulforhodamine B assay relative to control; conditions: MDA-MB-435, 48 h, read-out: Activity
OVCAR-3 = assay: Cytotoxicity against human OVCAR3 cells assessed as growth inhibition after 48 hrs by sulforhodamine B assay; conditions: OVCAR-3, 48 h
MDA-MB-468 = assay: Cytotoxicity against human MDA-MB-468 cells assessed as cell growth at 100 uM after 48 hrs by sulforhodamine B assay relative to control; conditions: MDA-MB-468, 48 h, read-out: Activity
NCI/ADR-RES = assay: Cytotoxicity against human NCI/ADR-RES cells assessed as cell growth at 1 uM after 48 hrs by sulforhodamine B assay relative to control; conditions: read-out: Activity
TK-10 [1] = assay: Cytotoxicity against human TK10 cells assessed as cell growth at 0.1 uM after 48 hrs by sulforhodamine B assay relative to control; conditions: TK-10, 48 h, read-out: Activity
HCT-116 = assay: Cytotoxicity against human HCT116 cells assessed as cell growth at 0.01 uM after 48 hrs by sulforhodamine B assay relative to control; conditions: HCT-116, 48 h, read-out: Activity
SF-268 = assay: Cytotoxicity against human SF268 cells assessed as cell growth at 100 uM after 48 hrs by sulforhodamine B assay relative to control; conditions: SF-268, 48 h, read-out: Activity
PC-3 [2] = assay: Cytotoxicity against human PC3 cells assessed as cell growth at 0.1 uM after 48 hrs by sulforhodamine B assay relative to control; conditions: PC-3, 48 h, read-out: Activity
786-0 [3] = assay: Cytotoxicity against human 786-0 cells assessed as cell growth at 10 uM after 48 hrs by sulforhodamine B assay relative to control; conditions: 786-0, 48 h, read-out: Activity
T47D [4] = assay: Cytotoxicity against human T47D cells assessed as cell growth at 0.1 uM after 48 hrs by sulforhodamine B assay relative to control; conditions: read-out: Activity
SF-539 [5] = assay: Cytotoxicity against human SF539 cells assessed as cell growth at 1 uM after 48 hrs by sulforhodamine B assay relative to control; conditions: SF-539, 48 h, read-out: Activity
Hs-578T = assay: Cytotoxicity against human Hs 578T cells assessed as cell growth at 100 uM after 48 hrs by sulforhodamine B assay relative to control; conditions: read-out: Activity
HCC 2998 = assay: Cytotoxicity against human HCC2998 cells assessed as cell growth at 100 uM after 48 hrs by sulforhodamine B assay relative to control; conditions: HCC 2998, 48 h, read-out: Activity
KM12 [6] = assay: Cytotoxicity against human KM12 cells assessed as cell growth at 1 uM after 48 hrs by sulforhodamine B assay relative to control; conditions: KM12, 48 h, read-out: Activity
IGROV-1 = assay: Cytotoxicity against human IGROV1 cells assessed as cell growth at 1 uM after 48 hrs by sulforhodamine B assay relative to control; conditions: IGROV-1, 48 h, read-out: Activity
SK-MEL-5 = assay: Cytotoxicity against human SK-MEL-5 cells assessed as cell growth at 100 uM after 48 hrs by sulforhodamine B assay relative to control; conditions: SK-MEL-5, 48 h, read-out: Activity
COLO 205 = assay: Cytotoxicity against human COLO205 cells assessed as cell growth at 1 uM after 48 hrs by sulforhodamine B assay relative to control; conditions: COLO 205, 48 h, read-out: Activity
RPMI-8226 = assay: Cytotoxicity against human RPMI8226 cells assessed as cell growth at 10 uM after 48 hrs by sulforhodamine B assay relative to control; conditions: RPMI-8226, 48 h, read-out: Activity
HCT-15 = assay: Cytotoxicity against human HCT15 cells assessed as cell growth at 100 uM after 48 hrs by sulforhodamine B assay relative to control; conditions: HCT-15, 48 h, read-out: Activity
SN12C [7] = assay: Cytotoxicity against human SN12C cells assessed as cell growth at 0.1 uM after 48 hrs by sulforhodamine B assay relative to control; conditions: read-out: Activity
SN12C [8] = assay: Cytotoxicity against human SN12C cells assessed as cell growth at 10 uM after 48 hrs by sulforhodamine B assay relative to control; conditions: read-out: Activity
SN12C [9] = assay: Cytotoxicity against human SN12C cells assessed as cell growth at 1 uM after 48 hrs by sulforhodamine B assay relative to control; conditions: read-out: Activity
T47D [10] = assay: Cytotoxicity against human T47D cells assessed as cell growth at 0.01 uM after 48 hrs by sulforhodamine B assay relative to control; conditions: read-out: Activity
SNB-19 = assay: Cytotoxicity against human SNB19 cells assessed as cell growth at 0.1 uM after 48 hrs by sulforhodamine B assay relative to control; conditions: SNB-19, 48 h, read-out: Activity
SK-MEL-28 = assay: Cytotoxicity against human SK-MEL-28 cells assessed as growth inhibition after 48 hrs by sulforhodamine B assay; conditions: SK-MEL-28, 48 h
CCRF-CEM [11] = assay: Cytotoxicity against human CCRF-CEM cells assessed as cell growth at 100 uM after 48 hrs by sulforhodamine B assay relative to control; conditions: read-out: Activity
KM12 [12] = assay: Cytotoxicity against human KM12 cells assessed as cell growth at 0.01 uM after 48 hrs by sulforhodamine B assay relative to control; conditions: KM12, 48 h, read-out: Activity
PC-3 [13] = assay: Cytotoxicity against human PC3 cells assessed as growth inhibition after 48 hrs by sulforhodamine B assay; conditions: PC-3, 48 h
CCRF-CEM [14] = assay: Cytotoxicity against human CCRF-CEM cells assessed as cell growth at 10 uM after 48 hrs by sulforhodamine B assay relative to control; conditions: read-out: Activity
SF-539 [15] = assay: Cytotoxicity against human SF539 cells assessed as cell growth at 0.1 uM after 48 hrs by sulforhodamine B assay relative to control; conditions: SF-539, 48 h, read-out: Activity
NCI-H460 = assay: Cytotoxicity against human NCI-H460 cells assessed as cell growth at 0.1 uM after 48 hrs by sulforhodamine B assay relative to control; conditions: NCI-H460, 48 h, read-out: Activity
TK-10 [16] = assay: Cytotoxicity against human TK10 cells assessed as cell growth at 10 uM after 48 hrs by sulforhodamine B assay relative to control; conditions: TK-10, 48 h, read-out: Activity
T47D [17] = assay: Cytotoxicity against human T47D cells assessed as growth inhibition after 48 hrs by sulforhodamine B assay
U-251 = assay: Cytotoxicity against human U251 cells assessed as cell growth at 0.01 uM after 48 hrs by sulforhodamine B assay relative to control; conditions: U-251, 48 h, read-out: Activity
786-0 [18] = assay: Cytotoxicity against human 786-0 cells assessed as cell growth at 1 uM after 48 hrs by sulforhodamine B assay relative to control; conditions: 786-0, 48 h, read-out: Activity

SMILES: COc1ccc(-c2cc(/C=C/C(=O)c3ccc(N)cc3)[nH]n2)cc1
- growth at 1 µM (UACC-62): 79%
- growth at 1 µM (MDA-MB-435): 85%
- GI50 (OVCAR-3): 1.25 µM
- LC50 (OVCAR-3): 7.09 µM
- TGI (OVCAR-3): 2.97 µM
- growth at 100 µM (MDA-MB-468): -51%
- growth at 1 µM (NCI/ADR-RES): 85%
- growth at 0.1 µM (TK-10 [1]): 95%
- growth at 0.01 µM (HCT-116): 97%
- growth at 100 µM (SF-268): -61%
- growth at 0.1 µM (PC-3 [2]): 93%
- growth at 10 µM (786-0 [3]): -29%
- growth at 0.1 µM (T47D [4]): 87%
- growth at 1 µM (SF-539 [5]): 72%
- growth at 100 µM (Hs-578T): -35%
- growth at 100 µM (HCC 2998): -93%
- growth at 1 µM (KM12 [6]): 77%
- growth at 1 µM (IGROV-1): 89%
- growth at 100 µM (SK-MEL-5): -100%
- growth at 1 µM (COLO 205): 100%
- growth at 10 µM (RPMI-8226): -35%
- growth at 100 µM (HCT-15): -59%
- growth at 0.1 µM (SN12C [7]): 94%
- growth at 10 µM (SN12C [8]): -16%
- growth at 1 µM (SN12C [9]): 76%
- growth at 0.01 µM (T47D [10]): 98%
- growth at 0.1 µM (SNB-19): 89%
- GI50 (SK-MEL-28): 1.87 µM
- LC50 (SK-MEL-28): 8.57 µM
- TGI (SK-MEL-28): 4.01 µM
- growth at 100 µM (CCRF-CEM [11]): -68%
- growth at 0.01 µM (KM12 [12]): 96%
- GI50 (PC-3 [13]): 2.42 µM
- LC50 (PC-3 [13]): 39.8 µM
- TGI (PC-3 [13]): 10.1 µM
- growth at 10 µM (CCRF-CEM [14]): -27%
- growth at 0.1 µM (SF-539 [15]): 97%
- growth at 0.1 µM (NCI-H460): 102%
- growth at 10 µM (TK-10 [16]): 12%
- GI50 (T47D [17]): 1.47 µM
- LC50 (T47D [17]): 85.8 µM
- TGI (T47D [17]): 9.77 µM
- growth at 0.01 µM (U-251): 97%
- growth at 1 µM (786-0 [18]): 88%
